This test addresses T1, CgDM9CP-4 (rCgDM9CP-4) (Magallana gigas, UniProt A0A8W8N023).
T1 construct: full ORF, 145 residues, two tandem DM9 domains, predicted 16 kDa (~18 kDa on gel); pET-30a (NdeI/XhoI), His tag, E. coli Transetta (DE3), Ni column
The test is described as follows: ELISA on mannose-coated plate, one-site fit. The class given is binding. Particulars: apparent Kd; mannose coated at 20 μg in pH 9.6 buffer; 5 mmol L^-1 CaCl2, 0.1 mg mL^-1 BSA, 37°C; anti-His detection.

T1 sequence (A0A8W8N023 entry or part of it): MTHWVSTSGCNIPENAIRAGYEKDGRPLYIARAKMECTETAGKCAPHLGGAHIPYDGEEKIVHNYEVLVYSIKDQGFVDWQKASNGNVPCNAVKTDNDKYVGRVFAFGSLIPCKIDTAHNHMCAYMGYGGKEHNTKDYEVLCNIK

Consider `OC[C@H]1OC(O)[C@@H](O)[C@@H](O)[C@@H]1O` (stereo partly shown) [Mannose], for which the Kd was found to be 90 nM.
